Assay results from US20130059850A1, “AZA-INDOLE DERIVATIVES USEFUL AS MODULATORS OF FAAH” (MERCK SHARP & DOHME CORP., priority 2010, published 2013).

Legend:
[1] = biological target: T1, human FAAH (Fatty Acid Amide Hydrolase) (Homo sapiens, UniProt O00519); assay: FAAH enzyme assay on CHO cell lysate expressing human FAAH (human LY), AAMCA fluorescent substrate; format: biochemical; settings: human FAAH_CHO cell lysate
T1 construct: The full length FAAH was subcloned into the mammalian expression vector, pcDEF.neo, using XbaI and EcoRI restriction sites; expressed in transfected cells
T1 sequence (O00519 1-579): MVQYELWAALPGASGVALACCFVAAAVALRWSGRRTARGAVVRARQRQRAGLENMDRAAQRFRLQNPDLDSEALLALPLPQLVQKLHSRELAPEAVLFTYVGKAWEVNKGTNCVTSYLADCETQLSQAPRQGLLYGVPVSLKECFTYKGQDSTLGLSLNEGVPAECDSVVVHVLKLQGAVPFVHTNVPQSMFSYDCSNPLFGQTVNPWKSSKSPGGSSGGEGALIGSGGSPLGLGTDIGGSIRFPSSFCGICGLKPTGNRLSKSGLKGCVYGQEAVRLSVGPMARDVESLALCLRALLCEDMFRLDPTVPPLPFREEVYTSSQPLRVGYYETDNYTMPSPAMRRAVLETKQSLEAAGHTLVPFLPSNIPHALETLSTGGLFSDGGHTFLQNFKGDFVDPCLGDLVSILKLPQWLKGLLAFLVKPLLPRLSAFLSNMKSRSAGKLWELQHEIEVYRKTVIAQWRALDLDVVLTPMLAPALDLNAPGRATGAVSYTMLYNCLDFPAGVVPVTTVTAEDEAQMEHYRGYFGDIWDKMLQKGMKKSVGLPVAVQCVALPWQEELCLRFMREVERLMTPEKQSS
From the text: (§1) To assist in assay development stable cell lines for human, murine and rat full length FAAH were developed. Human FAAH cDNA (Accession No: NM_001441.1) was purchased from Origene (Rockville, Md.). The full length FAAH was subcloned into the mammalian expression vector, pcDEF.neo, using XbaI and EcoRI restriction sites and used for stable cell line generation.
CHO cells expressing FAAH were used to prepare either crude cell lysate or microsome fractions. To harvest cells, tissue culture media was decanted, the monolayer washed three times with Ca^++Mg^++ free PBS and cells recovered after […] in enzyme free dissociation media (Millipore Corp, Billerica, Mass.). Cells were collected by centrifuging at 2000 rpm for 15 min. and the cell pellet re-suspended with 50 mM HEPES (pH 7.4) containing 1 mM EDTA and the protease inhibitors aprotinin (1 mg/ml) and leupeptin (100 μM). The suspension was sonicated at 4° C. and the cell lysate recovered after centrifuging at 12,000×g (14,600 rpm, SS34 rotor) for 20 min at 4° C. to form a crude pellet of cell debris, nuclei, peroxisomes, lysosomes, and mitochondria; the supernatant or cell lysate was used for FAAH enzyme assay. In some cases, microsomes fractions enriched in FAAH were prepared by centrifuging the cell lysate further at 27,000 rpm (100,000×g) in SW28 rotor for 50 minutes at 4° C. The pellet containing FAAH-enriched microsomes was re-suspend in 50 mM HEPES, (pH 7.4) 1 mM EDTA, and any remaining DNA sheared by passage of material through a 23 gauge needle and aliquots of enzyme were store at −80° C. prior to use.
(§2) (American Radiolabeled Chemicals; 1 mCi/ml) with FAAH (Life Sciences (1995), 56, 1999-2005 and Journal of Pharmacology and Experimented Therapeutics (1997), 283, 729-734), Analytical. Biochemistry (2003), 318, 270-5. In addition, routine assays were performed monitoring hydrolysis of arachidonyl-7-amino-4-methylcoumarin amide (AAMCA) by following increase in fluorescence upon release of 7-amino 4-methyl coumarin (λEX=355 nm, μEM=460 nm). Analytical. Biochemistry (2005). 343, 143-51
(§3) Assays are performed on either cell lysate or microsome fractions prepared as described or in whole cell format employing either the fluorescent substrate AAMCA (Cayman chemical, Ann Arbor, Mich.,) or ^3H-anandamide ([ETHANOLAMINE-1-3H] American Radiolabeled Chemicals; 1 mCi/ml). The cell lysate or microsome assay is performed in black PerkinElmer OptiPlates-384F by adding FAAH_CHO (whole cell (human whole cell or human WC), cell lysate (human cell lysate or human LY) or microsome) in assay buffer (50 mM Phosphate, pH 8.0, 1 mM EDTA, 200 mM KCl, 0.2% glycerol, 0.1% fatty acid free BSA) to each well, followed by either DMSO or compound and allowed to incubate at 22-25° C. for fifteen minutes. AAMCA substrate was used to achieve a final concentration of 1 μM and reaction allowed to proceed at room temperature for 1-3 hours. Fluorescent release as a measure of FAAH activity was monitored by reading the plate in a Envision plate Reader (Ex: 360/40 nM; Em: 460/40 nM). Whole cell assay is conducted with cells harvested after rinsing tissue culture flasks three times with Ca^++Mg^++ free PBS, incubating for […] in Enzyme free dissociation media and centrifuging for 5 minutes at 1,000 rpm in table top centrifuge. Cells are resuspended in assay buffer at desired cell number in (4×10^4 cells/assay in 96-well format; 1×10^4 cells/assay in 384-well format) and assayed as described.

[2] = biological target: T1, human FAAH (Fatty Acid Amide Hydrolase); assay: FAAH whole cell assay on CHO cells expressing human FAAH (human WC), AAMCA fluorescent substrate; format: cell-based; settings: human FAAH_CHO whole cell
From the text: as §1
Murine (accession number NM_010173) and Rat FAAH (accession number NM_024132) was amplified by reverse transcriptase polymerase chain reaction (RT-PCR) from brain cDNA (BD Biosciences, San Jose, Calif.) using primers 1 and 2 or primers 1 and 3 respectively (see Table). The resulting PCR product was ligated into pCR4 TOPO and DNA sequence confirmed. The full length murine FAAH was subcloned into the mammalian expression vector, pcDEFneo using either EcoRI (murine) or KpnI and EcoRI (rat) restriction sites. Chinese hamster ovary cells (CHO) were transfected following manufacturers protocol (AMAXA). Forty eight hours post transfection, cells were trypsinized and transferred to 96 well plates in Iscove's DMEM media supplemented with 2 mM Glutamine, 10% fetal calf serum, 1 mg/ml geneticin and HT Supplement (0.1 mM sodium hypoxanthine, 0.016 mM thymidine) in order to isolate single clones. Following selection in geneticin, individual clones were selected and FAAH activity was assessed using a whole cell fluorescent anandamide assay, modified from Ramarao et al (2005). Following removal of tissue culture media cells were dislodged following addition of Cellstripper (Mediatech, Inc. Manassas, Va.) and transferred to 96 well black clear bottom assay plate, centrifuged at 1,000 rpm for 3 mins and media removed and replaced with assay buffer (50 mM Tris pH8.0, 1 mM EDTA, 0.1% fatty acid free BSA). The reaction was initiated by addition of fluorescent substrate, AMC Arachidonoyl Amide (Cayman Chemical, Ann Arbor, Mich.) to 1 μM and reaction allowed to proceed for 2 hours at room temperature. Release of fluorescence was monitored in a CytoFluor Multiplate Reader. Cells expressing the highest amount of FAAH activity were selected for study with FAAH inhibitors.
as §2
as §3, with “Cells are resuspended in assay buffer at desired cell number in (4×10^4 cells/assay in 96-well format; 1×10^4 cells/assay in 384-well format) and assayed as described.” left out

Row | SMILES | IC50 [1] [nM] | IC50 [2] [nM]
1 | Clc1ccc(Sc2c(C3=CCCOC3)[nH]c3ncccc23)cc1 [Example B17] | 31.9 | 190
2 | CCn1cccc2c(Sc3ccc(Cl)cc3)c(-c3ccc4c(c3)OCO4)nc1-2 [Example E13] | 48.9 | 160
3 | COc1cc(-c2[nH]c3ncccc3c2Sc2ccc(Cl)cc2)cnc1OC [Example B41] | 6.39 | 16.2
4 | OC[C@H]1CC[C@@H](c2[nH]c3ncccc3c2Sc2ccc(Cl)cc2)CC1 [Example B51] | 14.6 | 73.9
5 | O=C1NCc2cc(-c3[nH]c4ncccc4c3Sc3ccc(Cl)cc3)ccc21 [Example A32] | 7.84 | 15.1
6 | CC(O)c1ccc(-c2[nH]c3ncccc3c2Sc2ccc(Cl)cc2)cc1 (centres unmarked) [Example B12] | 11.6 | 27.1
7 | Clc1ccc(Sc2c(C3=CCCC3)[nH]c3ncccc23)cc1 [Example B15] | 107 | 1110
8 | OC(c1ccc2c(c1)OCO2)c1[nH]c2ncccc2c1Sc1ccc(Cl)cc1 (centres unmarked) [Example J9] | 2600 | 3330
9 | COCc1ccccc1-c1[nH]c2ncccc2c1Sc1ccc(Cl)cc1 [Example A19] | 196 | 1740
10 | Clc1ccc(Sc2c(-c3ccccn3)[nH]c3ncccc23)cc1 [Example F9] | 339 | 1110
11 | Cc1n[nH]c(C)c1-c1[nH]c2ncccc2c1Sc1ccc(Cl)cc1 [Example B19] | 65.6 | 364
12 | Clc1ccc(Sc2c(C3=CCCCC3)[nH]c3ncccc23)cc1 [Example B40] | 15.9 | 68.4
13 | Clc1ccc(Sc2c(-c3ccsc3)[nH]c3ncccc23)cc1 [Example B28] | 217 | 1520
14 | O=C(c1[nH]c2ncccc2c1Sc1ccc(Cl)cc1)N1CCc2ccncc21 [Example C12] | 2080 | 2680
15 | Clc1ccc(Sc2c(-c3cccs3)[nH]c3ncccc23)cc1 [Example B33] | 464 | 8540
16 | O=S(=O)(c1ccc(-c2[nH]c3ncccc3c2Sc2ccc(Cl)cn2)cc1)N1CCOCC1 [Example A21] | 230 | 370
17 | Clc1ccc(Sc2c(-c3cnn4c3CCCC4)[nH]c3ncccc23)cc1 [Example B35] | 33.5 | 344
18 | OC1CCN(Cc2[nH]c3ncccc3c2Sc2ccc(Cl)cc2)CC1 [Example J8] | 80.4 | 433
19 | N#CC1CC=C(c2[nH]c3ncccc3c2Sc2ccc(Cl)cc2)CC1 (centres unmarked) [Example B16] | 21.7 | 119

Molecules with a lower IC50 [1], results first:

Row | IC50 [1] [nM] | IC50 [2] [nM] | SMILES
20 | 2.23 | 18.8 | COc1cccc(-c2[nH]c3ncccc3c2Sc2ccc(Cl)cc2)c1 [Example B7]
21 | 5.56 | 124 | Nc1ccc(-c2[nH]c3ncccc3c2Sc2ccc(Cl)cc2)cc1 [Example A27]
22 | 1.43 | 3.83 | COc1ccc(-c2[nH]c3ncccc3c2Sc2ccc(Cl)cc2)cc1OC [Example B9]
23 | 3.18 | 30 | Clc1ccc(Sc2c(-c3ccnc4[nH]ccc34)[nH]c3ncccc23)cc1 [Example B27]
24 | 0.508 | 4.62 | Clc1ccc(Sc2c(-c3ccc4c(c3)OCO4)[nH]c3ncccc23)cc1 [Example B4, 2-(1,3-benzodioxol-5-yl)-3-[(4-chlorophenyl)sulfanyl]-1H-pyrrolo[2,3-b]pyridine]
25 | 5.29 | 27 | OC(c1ccc(-c2[nH]c3ncccc3c2Sc2ccc(Cl)cc2)cc1)C(F)(F)F (centres unmarked) [Example A12]
26 | 5.9 | 9.92 | O=C(Nc1ccc2c(c1)OCO2)c1[nH]c2ncccc2c1Sc1ccc(Cl)cc1 [Example C15]
27 | 3.35 | 28.9 | C[S+]([O-])c1ccc(-c2[nH]c3ncccc3c2Sc2ccc(Cl)cc2)cn1 (centres unmarked) [Example A36, 3-[(4-chlorophenyl)sulfanyl]-2-[6-(methylsulfinyl)pyridin-3-yl]-1H-pyrrolo[2,3-b]pyridine]
28 | 3.29 | 10.2 | Cn1ccc2cc(-c3[nH]c4ncccc4c3Sc3ccc(Cl)cc3)ccc21 [Example B11]
29 | 6 | 21.8 | NS(=O)(=O)c1ccc(-c2[nH]c3ncccc3c2Sc2ccc(Cl)cn2)cc1 [Example A8, 4-{3-[(5-chloropyridin-2-yl)sulfanyl]-1H-pyrrolo[2,3-b]pyridin-2-yl}benzenesulfonamide]
30 | 2.98 | 35.6 | CSc1ccc(-c2[nH]c3ncccc3c2Sc2ccc(Cl)cn2)cc1 [Example A14]
31 | 3.88 | 20.7 | Clc1ccc(Sc2c(-c3cccc4[nH]ccc34)[nH]c3ncccc23)cc1 [Example B10]
